# Values of other authors as cited in patent US20070275075A1, “Ezetimibe compositions” (priority 2006, published 2007).
# Legend:
# [1] = not given; remark: listed apart in the source
smiles,measurement,setting,value
"O=C1[C@H](CC[C@H](O)c2ccc(F)cc2)[C@@H](c2ccc(O)cc2)N1c1ccc(F)cc1 [Ezetimibe, 1-(4-fluorophenyl)-3(R)-[3-(4-fluorophenyl)-3(S)-hydroxypropyl]-4(S)-(4-hydroxyphenyl)-2-azetidinone]","solubility in ethanol, methanol, and acetone","ethanol, methanol, acetone",freely to very soluble
same,solubility in water,water,practically insoluble
same,stability at ambient temperature,[1],stable
